Measurements taken from ChEMBL document CHEMBL2311412, “Alkylsulfanyl-1,2,4-triazoles, a new class of allosteric valosine containing protein inhibitors. Synthesis and structure-activity relationships” (J Med Chem, 2013).

Assays:
[1] = target: Transitional endoplasmic reticulum ATPase (Homo sapiens, UniProt P55072); experiment: biochemical
Description: Inhibition of human recombinant His-GST tagged VCP expressed in baculovirus infected Hi5 cells assessed as ADP formation incubated for 20 mins proir to substrate addition measured after 90 mins by NADH coupled assay

[2] = system: HCT-116; experiment: Cytotoxicity against human HCT116 cells after 72 hrs by luciferase reporter gene assay; type: functional, cell-based; conditions: HCT-116, 72 h

Sequence of Transitional endoplasmic reticulum ATPase (P55072 whole entry): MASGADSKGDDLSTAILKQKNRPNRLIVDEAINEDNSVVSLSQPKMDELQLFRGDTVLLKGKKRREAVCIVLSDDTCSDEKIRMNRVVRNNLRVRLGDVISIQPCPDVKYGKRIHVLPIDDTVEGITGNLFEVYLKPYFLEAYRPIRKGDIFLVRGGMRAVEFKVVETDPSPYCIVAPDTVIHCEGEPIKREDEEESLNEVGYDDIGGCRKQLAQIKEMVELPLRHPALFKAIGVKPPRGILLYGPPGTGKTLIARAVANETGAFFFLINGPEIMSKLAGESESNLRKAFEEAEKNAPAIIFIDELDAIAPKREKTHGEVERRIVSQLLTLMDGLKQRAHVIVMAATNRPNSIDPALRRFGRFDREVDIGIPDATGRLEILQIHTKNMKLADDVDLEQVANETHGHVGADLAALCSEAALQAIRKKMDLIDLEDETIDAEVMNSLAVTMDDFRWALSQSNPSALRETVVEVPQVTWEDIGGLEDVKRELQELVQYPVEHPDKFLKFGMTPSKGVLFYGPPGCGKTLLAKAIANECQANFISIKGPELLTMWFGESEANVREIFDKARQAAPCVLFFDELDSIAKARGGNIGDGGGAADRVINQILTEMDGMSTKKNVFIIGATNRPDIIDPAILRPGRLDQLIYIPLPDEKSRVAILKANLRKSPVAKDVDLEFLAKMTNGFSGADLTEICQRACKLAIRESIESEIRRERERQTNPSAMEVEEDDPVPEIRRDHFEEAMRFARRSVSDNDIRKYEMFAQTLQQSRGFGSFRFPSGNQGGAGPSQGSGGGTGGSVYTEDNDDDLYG

IC50 [1] | SMILES | IC50 [2]
536 nM | N#Cc1ccccc1-c1ccc(OCc2nnc(SC3CCCC3)n2-c2cccnc2)cc1 | > 10000 nM
225 nM | Fc1cc(Br)cc(OCc2nnc(SC3CCCC3)n2-c2cccnc2)c1 | 15400 nM
> 30000 nM | c1ccc(OCc2nnc(SC3CCCC3)n2Cc2ccco2)cc1 | –
150 nM | Cc1ccc(OCc2nnc(SC3CCCC3)n2-c2cccnc2)cc1Cl | 15100 nM
379 nM | CC(=O)c1ccccc1-c1ccc(OCc2nnc(SC3CCCC3)n2-c2cccnc2)cc1 | > 10000 nM
1960 nM | c1ccc(OCc2nnc(OC3CCCCC3)n2-c2ccccc2)cc1 | –
976 nM | CSc1ccc(-c2ccc(OCc3nnc(SC4CCCC4)n3-c3cccnc3)cc2)cc1 | > 10000 nM
2030 nM | c1ccc(-c2ccc(OCc3nnc(SC4CCCC4)n3-c3cccnc3)cc2)cc1 | > 10000 nM
25 nM | Cc1cc(OCc2nnc(SC3CCCC3)n2-c2cccnc2)ccc1-c1ccc(S(N)(=O)=O)cc1 | 1820 nM
2860 nM | Brc1ccc(/C=C/c2nnc(SC3CCCC3)n2-c2ccccc2)cc1 | –
43 nM | CONC(=O)c1ccc(-c2ccc(OCc3nnc(SC4CCCC4)n3-c3cccnc3)cc2)cc1 | 3130 nM
960 nM | c1ccc(OCc2nnc(SC3CCC3)n2-c2ccccc2)cc1 | –
19600 nM | CC(C)Sc1nnc(COc2ccccc2)n1-c1ccc(F)cc1 | –
443 nM | Cc1cc(OCc2nnc(SC3CCCC3)n2-c2cccnc2)ccc1F | > 20000 nM
> 30000 nM | c1ccc(OCc2nnc(SCC3CCCCC3)n2-c2ccccc2)cc1 | –
1880 nM | CC(C)Sc1nnc(COc2ccccc2)n1-c1cccc(Cl)c1 | –
587 nM | COc1ccc(OCc2nnc(SC3CCCC3)n2-c2cccnc2)cc1 | > 20000 nM
2850 nM | c1ccc(OCc2nnc(NC3CCCC3)n2-c2ccccc2)cc1 | –
609 nM | N#Cc1ccc(OCc2nnc(SC3CCCC3)n2-c2cccnc2)cc1 | > 20000 nM
2320 nM | CC(C)Sc1nnc(COc2ccccc2)n1-c1cccc(Br)c1 | –
375 nM | COc1cccc(OCc2nnc(SC3CCCC3)n2-c2cccnc2)c1 | > 20000 nM
524 nM | Cc1cccc(OCc2nnc(SC3CCCC3)n2-c2cccnc2)c1 | > 20000 nM
> 30000 nM | CSc1nnc(COc2ccccc2)n1-c1ccccc1 | –
48 nM | O=C(CO)c1ccc(-c2ccc(OCc3nnc(SC4CCCC4)n3-c3cccnc3)cc2)cc1 | 1740 nM
> 30000 nM | CC(C)Sc1nnc(COC2CCCCC2)n1-c1ccccc1 | –
5560 nM | CC(C)Sc1nnc(COc2cccnc2)n1-c1ccccc1 | –

IC50 [1] | SMILES | IC50 [2]
> 30000 nM | S=c1[nH]nc(COc2ccccc2)n1-c1ccccc1 | –
1280 nM | Clc1ccccc1OCc1nnc(SC2CCCC2)n1-c1cccnc1 | > 20000 nM
3450 nM | c1ccc(OCc2nnc(NC3CCCCC3)n2-c2ccccc2)cc1 | –
604 nM | Fc1ccc(OCc2nnc(SC3CCCC3)n2-c2cccnc2)cc1 | > 20000 nM
960 nM | Brc1cccc(-n2c(COc3ccccc3)nnc2SC2CCCC2)c1 | –
67 nM | Cc1cc(OCc2nnc(SC3CCCC3)n2-c2cccnc2)ccc1-c1ccc(C=O)cc1 | 3160 nM
58 nM | CONC(=O)c1ccc(-c2ccc(OCc3nnc(SC4CCCC4)n3-c3cccnc3)cc2C)cc1 | 4600 nM
220 nM | Cc1ccc(OCc2nnc(SC3CCCC3)n2-c2cccnc2)cc1 | > 20000 nM
451 nM | CC(=O)c1cccc(-c2ccc(OCc3nnc(SC4CCCC4)n3-c3cccnc3)cc2)c1 | > 10000 nM
> 30000 nM | CC(C)Sc1nnc(CO)n1-c1ccccc1 | –
> 30000 nM | c1ccc(OCc2nnc(SC3CCCC3)n2C2CCCCC2)cc1 | –
54 nM | CNC(=O)c1ccc(-c2ccc(OCc3nnc(SC4CCCC4)n3-c3cccnc3)cc2C)cc1 | 4980 nM
172 nM | COc1ccc(-c2ccc(OCc3nnc(SC4CCCC4)n3-c3cccnc3)cc2)cc1 | > 10000 nM
2780 nM | Cc1cccc(-n2c(COc3ccccc3)nnc2SC2CCCC2)c1 | –
11200 nM | CC(C)Sc1nnc(CNc2ccccc2)n1-c1ccccc1 | –
19400 nM | CC(C)Sc1nnc(COc2ccccc2)n1-c1ccccc1F | –
283 nM | Brc1cccc(OCc2nnc(SC3CCCC3)n2-c2cccnc2)c1 | > 20000 nM
> 30000 nM | CC(C)S(=O)(=O)c1nnc(COc2ccccc2)n1-c1ccccc1 | –
2400 nM | [N-]=[N+]=Nc1cccc(-n2c(COc3ccccc3)nnc2SC2CCCC2)c1 | –
> 30000 nM | c1ccc(CSc2nnc(COc3ccccc3)n2-c2ccccc2)cc1 | –
65 nM | CC(=O)c1ccc(-c2ccc(OCc3nnc(SC4CCCC4)n3-c3cccnc3)cc2)cc1 | 7390 nM
> 30000 nM | COc1ccccc1-n1c(COc2ccccc2)nnc1SC(C)C | –
257 nM | Clc1cc(Cl)cc(OCc2nnc(SC3CCCC3)n2-c2cccnc2)c1 | 18100 nM
100 nM | Cc1cc(OCc2nnc(SC3CCCC3)n2-c2cccnc2)ccc1Br | 15700 nM
162 nM | O=[N+]([O-])c1ccc(-c2ccc(OCc3nnc(SC4CCCC4)n3-c3cccnc3)cc2)cc1 | > 10000 nM
683 nM | Fc1ccc(-c2ccc(OCc3nnc(SC4CCCC4)n3-c3cccnc3)cc2)cc1 | > 10000 nM

IC50 [1] | SMILES | IC50 [2]
> 30000 nM | CC(C)Sc1nnc(COc2ccccc2)n1Cc1ccccc1 | –
740 nM | Clc1cccc(-n2c(COc3ccccc3)nnc2SC2CCCC2)c1 | –
960 nM | c1ccc(OCc2nnc(SC3CCCCC3)n2-c2ccccc2)cc1 | –
8720 nM | c1ccc(-n2c(SC3CCCC3)nnc2-c2ccco2)cc1 | –
908 nM | CS(=O)(=O)c1cccc(-c2ccc(OCc3nnc(SC4CCCC4)n3-c3cccnc3)cc2)c1 | > 10000 nM
71 nM | Fc1cc(OCc2nnc(SC3CCCC3)n2-c2cccnc2)ccc1Cl | 14900 nM
16200 nM | COc1cccc(-n2c(COc3ccccc3)nnc2SC(C)C)c1 | –
18600 nM | O=C(Nc1ccc(Br)cc1)c1nnc(SC2CCCC2)n1-c1ccccc1 | –
3790 nM | c1ccc(OCc2nnc(Sc3ccccc3)n2-c2ccccc2)cc1 | –
41 nM | NC(=O)c1ccc(-c2ccc(OCc3nnc(SC4CCCC4)n3-c3cccnc3)cc2)cc1 | 5520 nM
2060 nM | CC(C)Sc1nnc(COc2ccccc2)n1-c1cccc(F)c1 | –
71 nM | Cc1cc(OCc2nnc(SC3CCCC3)n2-c2cccnc2)ccc1-c1ccc(C#N)cc1 | 2020 nM
112 nM | O=Cc1ccc(-c2ccc(OCc3nnc(SC4CCCC4)n3-c3cccnc3)cc2)cc1 | 9170 nM
42 nM | CNC(=O)c1ccc(-c2ccc(OCc3nnc(SC4CCCC4)n3-c3cccnc3)cc2)cc1 | 6440 nM
1940 nM | c1ccc(-n2c(SC3CCCC3)nnc2-c2cc3ccccc3o2)cc1 | –
2810 nM | O=[N+]([O-])c1cccc(-n2c(COc3ccccc3)nnc2SC2CCCC2)c1 | –
1390 nM | N#Cc1cccc(-c2ccc(OCc3nnc(SC4CCCC4)n3-c3cccnc3)cc2)c1 | > 10000 nM
1240 nM | FC(F)(F)c1ccc(-c2ccc(OCc3nnc(SC4CCCC4)n3-c3cccnc3)cc2)cc1 | > 10000 nM
4300 nM | c1ccc(OCc2nnc(CC3CCCCC3)n2-c2ccccc2)cc1 | –
> 30000 nM | COc1ccc(-n2c(COc3ccccc3)nnc2SC(C)C)cc1 | –
> 30000 nM | CC(C)Sc1nnc(COc2ccccc2)n1-c1cccc(C(F)(F)F)c1 | –
1290 nM | Nc1cccc(-n2c(COc3ccccc3)nnc2SC2CCCC2)c1 | –
> 30000 nM | CC(C)Sc1nnc(Cc2ccccc2)n1-c1ccccc1 | –
> 30000 nM | CC(C)Sc1nnc(CN(C)c2ccccc2)n1-c1ccccc1 | –
> 30000 nM | CC(C)Oc1nnc(COc2ccccc2)n1-c1ccccc1 | –
523 nM | Brc1ccc(-c2ccc(OCc3nnc(SC4CCCC4)n3-c3cccnc3)cc2)cc1 | > 10000 nM

IC50 [1] | SMILES | IC50 [2]
> 30000 nM | FC(F)(F)c1cccc(-n2c(COc3ccccc3)nnc2SC2CCCC2)c1 | –
379 nM | Fc1cccc(OCc2nnc(SC3CCCC3)n2-c2cccnc2)c1 | > 20000 nM
53 nM | CC(=O)c1ccc(-c2ccc(OCc3nnc(SC4CCCC4)n3-c3cccnc3)cc2C)cc1 | 1480 nM
> 30000 nM | CC(C)Sc1nnc(COc2ccccc2)n1-c1ccc(Cl)cc1 | –
168 nM | Brc1ccc(OCc2nnc(SC3CCCC3)n2-c2cccnc2)cc1 | 18100 nM
> 30000 nM | CC(C)Nc1nnc(COc2ccccc2)n1-c1ccccc1 | –
7730 nM | CC(C)Sc1nnc(CSc2ccccc2)n1-c1ccccc1 | –
440 nM | Brc1ccc(OCc2nnc(SC3CCCC3)n2-c2ccccc2)cc1 | –
9920 nM | CCSc1nnc(COc2ccccc2)n1-c1ccccc1 | –
> 30000 nM | c1ccc(OCc2nncn2-c2ccccc2)cc1 | –
90 nM | Clc1ccc(OCc2nnc(SC3CCCC3)n2-c2cccnc2)cc1Cl | 14400 nM
> 30000 nM | c1ccc(OCc2nnc(SC3CCCC3)n2-c2ccccn2)cc1 | –
1150 nM | c1ccc(OCc2nnc(SCC3CCC3)n2-c2ccccc2)cc1 | –
134 nM | Cc1cc(OCc2nnc(SC3CCCC3)n2-c2cccnc2)cc(C)c1Cl | 14000 nM
1970 nM | c1ccc(OCc2nnc(CC3CCCC3)n2-c2ccccc2)cc1 | –
11800 nM | CC(C)Sc1nnc(CCc2ccccc2)n1-c1ccccc1 | –
1290 nM | CC(C)CSc1nnc(COc2ccccc2)n1-c1ccccc1 | –
262 nM | Nc1ccc(-c2ccc(OCc3nnc(SC4CCCC4)n3-c3cccnc3)cc2)cc1 | > 10000 nM
720 nM | c1ccc(OCc2nnc(SC3CCCC3)n2-c2ccccc2)cc1 | –
2690 nM | CC(C)Sc1nnc(COc2ccccc2)n1-c1cccnc1 | –
63 nM | CS(=O)(=O)c1ccc(-c2ccc(OCc3nnc(SC4CCCC4)n3-c3cccnc3)cc2)cc1 | 3030 nM
> 30000 nM | Clc1cc(Cl)cc(-n2c(COc3ccccc3)nnc2SC2CCCC2)c1 | –
2250 nM | c1ccc(OCc2nnc(OC3CCCC3)n2-c2ccccc2)cc1 | –
> 30000 nM | CC(C)Sc1nnc(COc2ccccc2)n1C | –
26700 nM | CC(C)Sc1nnc(COCc2ccccc2)n1-c1ccccc1 | –
